Assay type in all cases: functional
The subject of one assay is Klebsiella pneumoniae. Put plainly: Antibacterial activity against Klebsiella pneumoniae MTCC 618 after 24 hrs by disk diffusion method. On the technique in general: A growth-free zone around the sample is the usual read-out of agar diffusion tests.
Assay [1] deals with Staphylococcus epidermidis. Put plainly: Antibacterial activity against Staphylococcus epidermidis MTCC 435 after 24 hrs by disk diffusion method.
The next assay has as its system Pseudomonas aeruginosa. Put plainly: Antibacterial activity against Pseudomonas aeruginosa MTCC 424 after 24 hrs by disk diffusion method.
Another assay relates to Vibrio sp. Put plainly: Antibacterial activity against Vibrio sp. after 24 hrs by disk diffusion method.
A further assay relates to Bacillus subtilis. Put plainly: Antibacterial activity against Bacillus subtilis MTCC 441 after 24 hrs by disk diffusion method.
The subject of a further assay is Escherichia coli. Put plainly: Antibacterial activity against Escherichia coli MTCC 448 after 24 hrs by disk diffusion method.

Converted amounts (≈) assume the structure as drawn.

The term MIC denotes the lowest concentration found to suppress growth. High values mean weaker potency, low ones greater potency. With `O=S(=O)(c1ccccc1)N1CCC(c2nc3n(n2)S(=O)(=O)c2ccccc2N3c2ccccc2)CC1`, the MIC against Klebsiella pneumoniae was 32 µg/mL (≈ 61.3 µM); in assay [1], 32 µg/mL (≈ 61.3 µM); against Pseudomonas aeruginosa, 16 µg/mL (≈ 30.7 µM); with Vibrio sp. it was 32 µg/mL (≈ 61.3 µM); with Bacillus subtilis it was 16 µg/mL (≈ 30.7 µM); against Escherichia coli it was 16 µg/mL (≈ 30.7 µM).
Regarding `O=S(=O)(c1ccc(Cl)cc1Cl)N1CCC(c2nc3n(n2)S(=O)(=O)c2ccccc2N3c2ccccc2)CC1`, the MIC in the assay on Klebsiella pneumoniae was determined as 32 µg/mL (≈ 54.2 µM); in assay [1], 32 µg/mL (≈ 54.2 µM); against Pseudomonas aeruginosa it was 32 µg/mL (≈ 54.2 µM); in the assay on Vibrio sp. it was 16 µg/mL (≈ 27.1 µM); in the assay on Bacillus subtilis it was 16 µg/mL (≈ 27.1 µM); with Escherichia coli, 16 µg/mL (≈ 27.1 µM).
As for `CC(=O)Nc1ccc(S(=O)(=O)N2CCC(c3nc4n(n3)S(=O)(=O)c3ccccc3N4c3ccccc3)CC2)cc1`, the MIC in the assay on Klebsiella pneumoniae was determined as 32 µg/mL (≈ 55.3 µM); in assay [1], 32 µg/mL (≈ 55.3 µM); in the assay on Pseudomonas aeruginosa, 32 µg/mL (≈ 55.3 µM); with Vibrio sp., 32 µg/mL (≈ 55.3 µM); in the assay on Bacillus subtilis, 16 µg/mL (≈ 27.6 µM); with Escherichia coli, 16 µg/mL (≈ 27.6 µM).
For `O=S(=O)(c1ccc(F)cc1)N1CCC(c2nc3n(n2)S(=O)(=O)c2ccccc2N3c2ccccc2)CC1`, the MIC was 32 µg/mL (≈ 59.3 µM) against Klebsiella pneumoniae; 32 µg/mL (≈ 59.3 µM) in assay [1]; 32 µg/mL (≈ 59.3 µM) in the assay on Pseudomonas aeruginosa; 16 µg/mL (≈ 29.7 µM) in the assay on Vibrio sp.; 16 µg/mL (≈ 29.7 µM) with Bacillus subtilis; 16 µg/mL (≈ 29.7 µM) against Escherichia coli.
For the molecule `CN1c2ccccc2S(=O)(=O)n2nc(C3CCN(S(=O)(=O)c4ccccc4)CC3)nc21`, the MIC against Klebsiella pneumoniae was 32 µg/mL (≈ 69.6 µM); in assay [1], 32 µg/mL (≈ 69.6 µM); with Pseudomonas aeruginosa it was 64 µg/mL (≈ 139 µM); against Vibrio sp., 32 µg/mL (≈ 69.6 µM); against Bacillus subtilis, 16 µg/mL (≈ 34.8 µM); with Escherichia coli, 8 µg/mL (≈ 17.4 µM).
Consider `CC(=O)Nc1ccc(S(=O)(=O)Nc2ccc(-c3nc4n(n3)S(=O)(=O)c3ccccc3N4c3ccccc3)cc2)cc1`, for which the MIC in the assay on Klebsiella pneumoniae is 16 µg/mL (≈ 27.3 µM); in assay [1] it was 32 µg/mL (≈ 54.5 µM); with Pseudomonas aeruginosa, 32 µg/mL (≈ 54.5 µM); against Vibrio sp., 32 µg/mL (≈ 54.5 µM); against Bacillus subtilis it was 8 µg/mL (≈ 13.6 µM); with Escherichia coli, 8 µg/mL (≈ 13.6 µM).
For `CN1c2ccccc2S(=O)(=O)n2nc(C3CCN(S(=O)(=O)c4ccc(Cl)cc4Cl)CC3)nc21`, the MIC was determined as 16 µg/mL (≈ 30.3 µM) against Klebsiella pneumoniae; 16 µg/mL (≈ 30.3 µM) in assay [1]; 64 µg/mL (≈ 121 µM) against Pseudomonas aeruginosa; 32 µg/mL (≈ 60.6 µM) against Vibrio sp.; 16 µg/mL (≈ 30.3 µM) with Bacillus subtilis; 16 µg/mL (≈ 30.3 µM) against Escherichia coli.
In the case of `CC(=O)Nc1ccc(S(=O)(=O)N2CCC(c3nc4n(n3)S(=O)(=O)c3ccccc3N4C)CC2)cc1`, the MIC stood at 32 µg/mL (≈ 61.9 µM) against Klebsiella pneumoniae; 32 µg/mL (≈ 61.9 µM) in assay [1]; 32 µg/mL (≈ 61.9 µM) with Pseudomonas aeruginosa; 16 µg/mL (≈ 31 µM) with Vibrio sp.; 32 µg/mL (≈ 61.9 µM) in the assay with Bacillus subtilis; 8 µg/mL (≈ 15.5 µM) against Escherichia coli.
Take `Cc1ccc(S(=O)(=O)N2CCC(c3nc4n(n3)S(=O)(=O)c3ccccc3N4c3ccccc3)CC2)cc1`: the MIC in the assay with Klebsiella pneumoniae was 16 µg/mL (≈ 29.9 µM); in assay [1] it was 32 µg/mL (≈ 59.7 µM); against Pseudomonas aeruginosa, 32 µg/mL (≈ 59.7 µM); in the assay with Vibrio sp., 32 µg/mL (≈ 59.7 µM); with Bacillus subtilis, 16 µg/mL (≈ 29.9 µM); in the assay with Escherichia coli, 16 µg/mL (≈ 29.9 µM).
In the case of `O=S(=O)(Nc1ccc(-c2nc3n(n2)S(=O)(=O)c2ccccc2N3c2ccccc2)cc1)c1ccc(F)cc1`, the MIC was determined as 64 µg/mL (≈ 117 µM) in the assay with Klebsiella pneumoniae; 16 µg/mL (≈ 29.2 µM) in assay [1]; 32 µg/mL (≈ 58.4 µM) against Pseudomonas aeruginosa; 32 µg/mL (≈ 58.4 µM) against Vibrio sp.; 16 µg/mL (≈ 29.2 µM) with Bacillus subtilis; 16 µg/mL (≈ 29.2 µM) in the assay with Escherichia coli.
With `O=S(=O)(Nc1ccc(-c2nc3n(n2)S(=O)(=O)c2ccccc2N3c2ccccc2)cc1)c1ccc(Cl)cc1Cl`, the MIC with Klebsiella pneumoniae stood at 32 µg/mL (≈ 53.5 µM); in assay [1] it was 32 µg/mL (≈ 53.5 µM); in the assay with Pseudomonas aeruginosa, 16 µg/mL (≈ 26.7 µM); in the assay on Vibrio sp., 32 µg/mL (≈ 53.5 µM); in the assay with Bacillus subtilis it was 16 µg/mL (≈ 26.7 µM); in the assay with Escherichia coli it was 16 µg/mL (≈ 26.7 µM).
For `CC(=O)Nc1ccc(S(=O)(=O)Nc2ccc(-c3nc4n(n3)S(=O)(=O)c3ccccc3N4C)cc2)cc1`, the MIC in the assay on Klebsiella pneumoniae was 32 µg/mL (≈ 61 µM); in assay [1], 32 µg/mL (≈ 61 µM); against Pseudomonas aeruginosa, 32 µg/mL (≈ 61 µM); with Vibrio sp. it was 32 µg/mL (≈ 61 µM); in the assay with Bacillus subtilis it was 16 µg/mL (≈ 30.5 µM); in the assay on Escherichia coli, 16 µg/mL (≈ 30.5 µM).
As to `Cc1ccc(S(=O)(=O)Nc2ccc(-c3nc4n(n3)S(=O)(=O)c3ccccc3N4c3ccccc3)cc2)cc1`, the MIC stood at 32 µg/mL (≈ 58.9 µM) against Klebsiella pneumoniae; 32 µg/mL (≈ 58.9 µM) in assay [1]; 32 µg/mL (≈ 58.9 µM) against Pseudomonas aeruginosa; 32 µg/mL (≈ 58.9 µM) against Vibrio sp.; 8 µg/mL (≈ 14.7 µM) against Bacillus subtilis; 16 µg/mL (≈ 29.4 µM) against Escherichia coli.
As for `Cc1ccc(S(=O)(=O)N2CCC(c3nc4n(n3)S(=O)(=O)c3ccccc3N4C)CC2)cc1`, the MIC is 64 µg/mL (≈ 135 µM) in the assay with Klebsiella pneumoniae; 32 µg/mL (≈ 67.6 µM) in assay [1]; 64 µg/mL (≈ 135 µM) in the assay on Pseudomonas aeruginosa; 32 µg/mL (≈ 67.6 µM) against Vibrio sp.; 16 µg/mL (≈ 33.8 µM) in the assay on Bacillus subtilis; 16 µg/mL (≈ 33.8 µM) with Escherichia coli.
Regarding `CN1c2ccccc2S(=O)(=O)n2nc(C3CCN(S(=O)(=O)c4ccc(F)cc4)CC3)nc21`, the MIC is 16 µg/mL (≈ 33.5 µM) in the assay on Klebsiella pneumoniae; 32 µg/mL (≈ 67 µM) in assay [1]; 32 µg/mL (≈ 67 µM) against Pseudomonas aeruginosa; 32 µg/mL (≈ 67 µM) against Vibrio sp.; 32 µg/mL (≈ 67 µM) in the assay on Bacillus subtilis; 16 µg/mL (≈ 33.5 µM) against Escherichia coli.
Take `O=S(=O)(Nc1ccc(-c2nc3n(n2)S(=O)(=O)c2ccccc2N3c2ccccc2)cc1)c1ccccc1`: the MIC worked out at 32 µg/mL (≈ 60.4 µM) against Klebsiella pneumoniae; 32 µg/mL (≈ 60.4 µM) in assay [1]; 32 µg/mL (≈ 60.4 µM) with Pseudomonas aeruginosa; 32 µg/mL (≈ 60.4 µM) with Vibrio sp.; 8 µg/mL (≈ 15.1 µM) with Bacillus subtilis; 16 µg/mL (≈ 30.2 µM) in the assay with Escherichia coli.
With `Nc1ccc(S(=O)(=O)Nc2ncccn2)cc1` [SULFADIAZINE], the minimum inhibitory concentration (MIC) is over 64 µg/mL against Klebsiella pneumoniae; 32 µg/mL (≈ 128 µM) in assay [1]; 32 µg/mL (≈ 128 µM) in the assay with Pseudomonas aeruginosa; 16 µg/mL (≈ 63.9 µM) in the assay with Vibrio sp.; 16 µg/mL (≈ 63.9 µM) in the assay on Bacillus subtilis; 16 µg/mL (≈ 63.9 µM) in the assay on Escherichia coli.
`Nc1ccc(S(N)(=O)=O)cc1` [SULFANILAMIDE]: the MIC was over 64 µg/mL in the assay with Klebsiella pneumoniae; over 512 µg/mL in assay [1]; over 512 µg/mL against Pseudomonas aeruginosa; over 512 µg/mL against Vibrio sp.; over 128 µg/mL in the assay on Bacillus subtilis; over 128 µg/mL with Escherichia coli.

Source of the values: ChEMBL document CHEMBL1139793, “Synthesis, structure analysis, and antibacterial activity of some novel 10-substituted 2-(4-piperidyl/phenyl)-5,5-dioxo[1,2,4]triazolo[1,5-b][1,2,4]benzothiadiazine derivatives” (2007).
